Results: article PMC3445516 (PLoS ONE, 2012)
Read-outs that look alike come from different tables or passages of the source. Blank lines part the entries; values can stand above or below the molecule they belong to.

Legend:
Assay in all cases: Ambit kinase profiling, competition binding
RAF1 = molecular target: T1, RAF1 (Homo sapiens, UniProt P04049)
T1 construct: purchased Ambit Biosciences (KINOMEscan)
Experimental: (§1) Also included in the kinase profile are four isoforms of PKC (δ, ε, η, θ) and eight isoforms of CAMKs (CAMKIα, δ, γ; CAMKIIα, β, δ, γ; CAMK4).
(§2) The global kinase profiling experiment was performed by Ambit Biosciences.

BMPR1B = molecular target: T2, BMPR1B (Homo sapiens, UniProt O00238)
T2 construct: purchased Ambit Biosciences (KINOMEscan)
Experimental: as §1, §2

ROS1 = molecular target: T3, ROS1 (Homo sapiens, UniProt P08922)
T3 construct: purchased Ambit Biosciences (KINOMEscan)
Experimental: as §1, §2

EPHB3 = molecular target: T4, EPHB3 (Homo sapiens, UniProt P54753)
T4 construct: purchased Ambit Biosciences (KINOMEscan)
T4 sequence (P54753 34-998): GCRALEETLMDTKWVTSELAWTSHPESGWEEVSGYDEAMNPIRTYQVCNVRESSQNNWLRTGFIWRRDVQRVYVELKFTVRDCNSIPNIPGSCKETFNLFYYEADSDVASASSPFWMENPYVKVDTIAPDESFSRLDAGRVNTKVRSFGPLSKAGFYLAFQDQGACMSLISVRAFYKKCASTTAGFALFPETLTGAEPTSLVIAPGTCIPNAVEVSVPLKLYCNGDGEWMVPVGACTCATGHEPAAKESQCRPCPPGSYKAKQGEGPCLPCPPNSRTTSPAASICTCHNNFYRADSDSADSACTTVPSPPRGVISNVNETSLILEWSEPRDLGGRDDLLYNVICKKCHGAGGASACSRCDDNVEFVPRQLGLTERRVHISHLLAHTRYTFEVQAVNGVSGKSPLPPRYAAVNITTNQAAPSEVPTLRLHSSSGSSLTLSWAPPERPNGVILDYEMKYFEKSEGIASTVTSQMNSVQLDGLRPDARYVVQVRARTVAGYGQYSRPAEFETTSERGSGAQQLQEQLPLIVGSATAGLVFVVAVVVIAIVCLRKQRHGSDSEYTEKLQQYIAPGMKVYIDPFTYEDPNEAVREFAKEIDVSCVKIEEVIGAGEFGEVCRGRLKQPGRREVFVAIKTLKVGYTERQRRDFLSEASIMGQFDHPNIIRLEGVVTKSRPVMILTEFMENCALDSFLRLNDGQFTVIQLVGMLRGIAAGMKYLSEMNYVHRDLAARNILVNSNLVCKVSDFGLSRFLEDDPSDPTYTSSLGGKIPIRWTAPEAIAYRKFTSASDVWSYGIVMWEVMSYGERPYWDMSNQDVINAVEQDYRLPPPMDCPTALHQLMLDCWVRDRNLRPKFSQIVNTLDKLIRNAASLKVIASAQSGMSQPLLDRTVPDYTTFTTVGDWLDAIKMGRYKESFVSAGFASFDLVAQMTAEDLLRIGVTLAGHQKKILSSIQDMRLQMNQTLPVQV
Experimental: as §1, §2

PHKG2 = molecular target: T5, PHKG2 (Homo sapiens, UniProt P15735)
T5 construct: purchased Ambit Biosciences (KINOMEscan)
T5 sequence (P15735 1-406): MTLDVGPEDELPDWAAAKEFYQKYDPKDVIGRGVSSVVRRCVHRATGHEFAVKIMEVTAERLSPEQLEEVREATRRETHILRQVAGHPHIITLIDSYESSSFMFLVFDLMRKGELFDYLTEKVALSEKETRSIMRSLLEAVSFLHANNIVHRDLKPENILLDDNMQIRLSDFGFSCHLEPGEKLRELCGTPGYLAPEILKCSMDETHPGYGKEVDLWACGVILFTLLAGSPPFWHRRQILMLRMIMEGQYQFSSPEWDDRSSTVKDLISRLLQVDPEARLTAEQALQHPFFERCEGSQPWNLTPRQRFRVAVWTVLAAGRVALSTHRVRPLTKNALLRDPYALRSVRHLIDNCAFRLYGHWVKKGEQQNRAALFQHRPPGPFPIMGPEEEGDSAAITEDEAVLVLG
Experimental: as §1, §2

MST4 = molecular target: T6, MST4 (Homo sapiens, UniProt Q9P289)
T6 construct: purchased Ambit Biosciences (KINOMEscan)
Experimental: as §1, §2

DYRK1B = molecular target: T7, DYRK1B (Homo sapiens, UniProt Q9Y463)
T7 construct: purchased Ambit Biosciences (KINOMEscan)
Experimental: as §1, §2

MEK4 = molecular target: T8, MEK4 (Homo sapiens, UniProt P45985)
T8 construct: purchased Ambit Biosciences (KINOMEscan)
T8 sequence (P45985 1-399): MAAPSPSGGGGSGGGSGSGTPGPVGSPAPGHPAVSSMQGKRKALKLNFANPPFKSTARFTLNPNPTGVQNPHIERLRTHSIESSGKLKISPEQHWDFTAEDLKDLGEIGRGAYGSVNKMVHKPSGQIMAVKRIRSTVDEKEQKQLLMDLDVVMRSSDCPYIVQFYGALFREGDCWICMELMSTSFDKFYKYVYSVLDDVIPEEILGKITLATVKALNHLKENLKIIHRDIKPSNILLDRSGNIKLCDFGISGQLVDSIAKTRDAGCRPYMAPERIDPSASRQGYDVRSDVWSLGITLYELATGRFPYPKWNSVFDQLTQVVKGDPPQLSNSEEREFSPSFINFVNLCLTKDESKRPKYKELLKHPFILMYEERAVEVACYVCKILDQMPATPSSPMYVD
Experimental: as §1, §2

EGFR(G719S) = molecular target: T9, EGFR(G719S) (Homo sapiens, UniProt P00533, G719S); details: for % Competition: 10 µM
T9 construct: purchased Ambit Biosciences (KINOMEscan)
Experimental: as §1, §2

CSNK1G3 = molecular target: T10, CSNK1G3 (Homo sapiens, UniProt Q9Y6M4); details: for % Competition: 10 µM
T10 construct: purchased Ambit Biosciences (KINOMEscan)
Experimental: as §1, §2

BTK = molecular target: T11, BTK (Homo sapiens, UniProt Q06187); details: for % Competition: 10 µM
T11 construct: purchased Ambit Biosciences (KINOMEscan)
Experimental: as §1, §2

[1] = molecular target: T12, EGFR(L747-E749del, A750P) (Homo sapiens, UniProt P00533, A750P/DEL747-749); details: for % Competition: 10 µM
T12 construct: purchased Ambit Biosciences (KINOMEscan)
Experimental: as §1, §2

PCTK1 = molecular target: T13, PCTK1 (Homo sapiens, UniProt Q00536)
T13 construct: purchased Ambit Biosciences (KINOMEscan)
Experimental: as §1, §2

T3 sequence (P08922 28-2347): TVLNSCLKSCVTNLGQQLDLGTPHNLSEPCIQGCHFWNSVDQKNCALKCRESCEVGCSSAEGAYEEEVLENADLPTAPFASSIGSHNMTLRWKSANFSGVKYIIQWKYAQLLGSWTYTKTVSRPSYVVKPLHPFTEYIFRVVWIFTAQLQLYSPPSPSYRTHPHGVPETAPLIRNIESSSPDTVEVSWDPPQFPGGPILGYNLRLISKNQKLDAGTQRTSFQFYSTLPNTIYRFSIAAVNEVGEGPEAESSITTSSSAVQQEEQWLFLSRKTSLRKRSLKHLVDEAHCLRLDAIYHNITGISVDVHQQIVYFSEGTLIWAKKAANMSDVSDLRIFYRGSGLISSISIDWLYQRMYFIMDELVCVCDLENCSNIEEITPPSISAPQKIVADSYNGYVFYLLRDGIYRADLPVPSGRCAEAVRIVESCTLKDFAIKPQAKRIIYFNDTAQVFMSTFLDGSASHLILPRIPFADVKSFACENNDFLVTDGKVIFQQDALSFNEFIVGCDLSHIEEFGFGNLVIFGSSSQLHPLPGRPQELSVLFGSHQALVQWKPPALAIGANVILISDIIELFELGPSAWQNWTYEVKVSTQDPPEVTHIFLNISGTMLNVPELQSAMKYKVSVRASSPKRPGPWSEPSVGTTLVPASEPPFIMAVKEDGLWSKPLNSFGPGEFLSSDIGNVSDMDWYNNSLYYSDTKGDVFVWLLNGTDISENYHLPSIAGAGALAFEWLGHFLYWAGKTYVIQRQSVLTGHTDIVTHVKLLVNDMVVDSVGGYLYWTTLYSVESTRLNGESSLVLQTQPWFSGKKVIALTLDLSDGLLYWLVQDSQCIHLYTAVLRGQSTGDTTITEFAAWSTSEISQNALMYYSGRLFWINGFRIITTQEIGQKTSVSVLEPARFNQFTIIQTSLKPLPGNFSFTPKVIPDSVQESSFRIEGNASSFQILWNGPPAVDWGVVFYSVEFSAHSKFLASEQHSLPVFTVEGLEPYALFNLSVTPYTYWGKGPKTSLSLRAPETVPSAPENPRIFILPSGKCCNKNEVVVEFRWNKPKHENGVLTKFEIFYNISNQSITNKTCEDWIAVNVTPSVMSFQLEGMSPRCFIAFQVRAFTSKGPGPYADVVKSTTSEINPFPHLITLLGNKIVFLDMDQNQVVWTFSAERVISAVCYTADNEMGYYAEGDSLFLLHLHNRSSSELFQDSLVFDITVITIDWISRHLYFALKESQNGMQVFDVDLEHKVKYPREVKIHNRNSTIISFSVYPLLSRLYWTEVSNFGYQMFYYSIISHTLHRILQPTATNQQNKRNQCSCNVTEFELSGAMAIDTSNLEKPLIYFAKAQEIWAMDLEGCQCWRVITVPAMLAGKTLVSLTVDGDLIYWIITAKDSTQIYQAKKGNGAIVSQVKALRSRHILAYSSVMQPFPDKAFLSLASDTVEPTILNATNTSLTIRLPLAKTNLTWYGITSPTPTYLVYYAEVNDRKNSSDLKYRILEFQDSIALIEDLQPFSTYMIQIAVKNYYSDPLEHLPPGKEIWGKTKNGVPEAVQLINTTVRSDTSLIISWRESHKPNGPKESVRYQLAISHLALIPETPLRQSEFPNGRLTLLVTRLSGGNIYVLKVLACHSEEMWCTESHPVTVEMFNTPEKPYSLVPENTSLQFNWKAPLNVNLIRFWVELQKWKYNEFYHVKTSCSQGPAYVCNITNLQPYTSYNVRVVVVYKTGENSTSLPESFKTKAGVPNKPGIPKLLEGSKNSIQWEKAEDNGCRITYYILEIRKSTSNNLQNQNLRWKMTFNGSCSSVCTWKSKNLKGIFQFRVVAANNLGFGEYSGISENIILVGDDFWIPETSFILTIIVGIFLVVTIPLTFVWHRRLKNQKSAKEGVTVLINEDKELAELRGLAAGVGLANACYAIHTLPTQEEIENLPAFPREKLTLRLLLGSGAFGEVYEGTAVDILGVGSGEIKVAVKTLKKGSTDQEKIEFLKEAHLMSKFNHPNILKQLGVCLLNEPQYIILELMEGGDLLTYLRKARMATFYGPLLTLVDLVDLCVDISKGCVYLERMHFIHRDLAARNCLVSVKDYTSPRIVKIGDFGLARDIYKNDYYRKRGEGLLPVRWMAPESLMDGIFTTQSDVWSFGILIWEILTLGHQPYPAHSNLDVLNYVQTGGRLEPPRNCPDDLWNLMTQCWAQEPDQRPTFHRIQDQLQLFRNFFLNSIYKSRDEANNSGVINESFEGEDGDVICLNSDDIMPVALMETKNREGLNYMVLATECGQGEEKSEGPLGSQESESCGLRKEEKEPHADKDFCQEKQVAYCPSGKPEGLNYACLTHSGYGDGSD
T11 sequence (Q06187 whole entry): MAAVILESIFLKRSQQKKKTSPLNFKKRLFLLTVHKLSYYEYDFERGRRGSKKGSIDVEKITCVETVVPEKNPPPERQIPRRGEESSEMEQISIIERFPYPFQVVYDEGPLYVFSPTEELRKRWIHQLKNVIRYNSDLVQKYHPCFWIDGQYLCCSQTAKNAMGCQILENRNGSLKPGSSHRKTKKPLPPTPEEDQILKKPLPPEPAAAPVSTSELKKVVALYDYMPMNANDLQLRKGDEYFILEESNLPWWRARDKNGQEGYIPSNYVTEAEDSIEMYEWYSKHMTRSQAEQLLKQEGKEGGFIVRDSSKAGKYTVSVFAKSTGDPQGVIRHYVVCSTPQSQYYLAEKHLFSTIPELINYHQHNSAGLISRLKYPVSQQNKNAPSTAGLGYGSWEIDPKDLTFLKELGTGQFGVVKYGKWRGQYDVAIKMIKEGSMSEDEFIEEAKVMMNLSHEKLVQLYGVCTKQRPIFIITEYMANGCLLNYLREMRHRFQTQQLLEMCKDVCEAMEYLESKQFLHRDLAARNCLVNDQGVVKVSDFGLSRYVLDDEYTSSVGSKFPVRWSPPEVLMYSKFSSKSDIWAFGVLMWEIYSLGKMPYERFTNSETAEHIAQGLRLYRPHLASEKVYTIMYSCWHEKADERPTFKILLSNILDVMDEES
T1 sequence (P04049 whole entry): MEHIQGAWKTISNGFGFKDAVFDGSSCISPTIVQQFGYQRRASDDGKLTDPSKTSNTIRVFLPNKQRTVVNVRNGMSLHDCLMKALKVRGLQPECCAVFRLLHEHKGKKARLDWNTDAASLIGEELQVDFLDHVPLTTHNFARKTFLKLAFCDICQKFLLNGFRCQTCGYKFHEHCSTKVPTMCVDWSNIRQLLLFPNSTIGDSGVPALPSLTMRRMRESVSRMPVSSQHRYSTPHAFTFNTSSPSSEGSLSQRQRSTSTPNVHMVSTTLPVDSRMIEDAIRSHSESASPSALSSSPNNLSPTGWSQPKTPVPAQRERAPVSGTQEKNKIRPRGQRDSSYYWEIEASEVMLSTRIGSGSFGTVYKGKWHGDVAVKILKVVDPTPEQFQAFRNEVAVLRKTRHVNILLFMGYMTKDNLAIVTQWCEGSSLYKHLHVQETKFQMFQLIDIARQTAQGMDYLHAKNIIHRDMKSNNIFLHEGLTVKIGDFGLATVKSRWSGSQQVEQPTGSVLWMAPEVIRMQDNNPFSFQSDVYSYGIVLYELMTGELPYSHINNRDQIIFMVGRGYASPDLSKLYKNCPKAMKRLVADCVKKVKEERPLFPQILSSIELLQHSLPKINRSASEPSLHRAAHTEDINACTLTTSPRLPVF
T2 sequence (O00238 14-502): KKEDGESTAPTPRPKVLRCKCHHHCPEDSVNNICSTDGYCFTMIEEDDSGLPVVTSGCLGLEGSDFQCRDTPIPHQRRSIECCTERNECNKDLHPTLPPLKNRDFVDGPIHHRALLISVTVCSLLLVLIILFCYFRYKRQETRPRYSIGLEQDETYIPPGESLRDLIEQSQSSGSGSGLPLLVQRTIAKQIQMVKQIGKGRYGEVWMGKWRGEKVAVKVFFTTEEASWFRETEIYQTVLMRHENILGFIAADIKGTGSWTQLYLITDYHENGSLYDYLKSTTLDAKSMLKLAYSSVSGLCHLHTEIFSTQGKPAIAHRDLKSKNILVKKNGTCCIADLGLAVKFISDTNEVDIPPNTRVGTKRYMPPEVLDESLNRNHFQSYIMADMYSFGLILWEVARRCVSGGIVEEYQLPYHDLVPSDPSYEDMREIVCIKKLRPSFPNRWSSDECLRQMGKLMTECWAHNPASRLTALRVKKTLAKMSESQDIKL
T10 sequence (Q9Y6M4 whole entry): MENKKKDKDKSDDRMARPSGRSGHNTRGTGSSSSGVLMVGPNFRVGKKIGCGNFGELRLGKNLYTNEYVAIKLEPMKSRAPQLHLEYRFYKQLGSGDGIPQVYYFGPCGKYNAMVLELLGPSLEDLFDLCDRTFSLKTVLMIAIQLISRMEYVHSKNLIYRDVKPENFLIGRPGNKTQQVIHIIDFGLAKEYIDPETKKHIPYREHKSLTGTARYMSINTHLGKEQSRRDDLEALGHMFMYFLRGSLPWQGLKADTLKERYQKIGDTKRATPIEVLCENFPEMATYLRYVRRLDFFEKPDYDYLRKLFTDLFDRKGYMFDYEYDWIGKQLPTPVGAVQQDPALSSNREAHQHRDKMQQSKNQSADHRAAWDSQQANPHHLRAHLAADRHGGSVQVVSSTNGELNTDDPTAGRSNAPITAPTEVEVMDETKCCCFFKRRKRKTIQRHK
T6 sequence (Q9P289 whole entry): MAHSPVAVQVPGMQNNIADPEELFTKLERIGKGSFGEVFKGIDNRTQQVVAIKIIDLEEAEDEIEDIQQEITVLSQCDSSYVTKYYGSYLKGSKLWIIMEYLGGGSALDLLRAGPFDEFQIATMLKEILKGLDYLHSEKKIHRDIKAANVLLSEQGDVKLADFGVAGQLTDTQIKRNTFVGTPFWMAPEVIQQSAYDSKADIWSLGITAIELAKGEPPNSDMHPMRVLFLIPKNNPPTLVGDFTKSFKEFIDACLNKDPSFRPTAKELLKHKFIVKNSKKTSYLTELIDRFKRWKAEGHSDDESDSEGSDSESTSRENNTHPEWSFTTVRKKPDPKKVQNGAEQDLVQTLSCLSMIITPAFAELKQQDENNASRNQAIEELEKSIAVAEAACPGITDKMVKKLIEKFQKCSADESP

inhibition at 10 µM (RAF1; RAF1, compound concentration 10 uM, read-out: Percent Competition): 81%
inhibition at 10 µM (BMPR1B; BMPR1B, compound concentration 10 uM, read-out: Percent Competition): 81%
inhibition at 10 µM (ROS1; ROS1, compound concentration 10 uM, read-out: Percent Competition): 80%
inhibition at 10 µM (EPHB3; EPHB3, compound concentration 10 uM, read-out: Percent Competition): 82%
inhibition at 10 µM (PHKG2; PHKG2, compound concentration 10 uM, read-out: Percent Competition): 91%
inhibition at 10 µM (MST4; MST4, compound concentration 10 uM, read-out: Percent Competition): 97%
inhibition at 10 µM (DYRK1B; DYRK1B, compound concentration 10 uM, read-out: Percent Competition): 79%
inhibition at 10 µM (MEK4; MEK4, compound concentration 10 uM, read-out: Percent Competition): 87%
Percent Competition (EGFR(G719S); compound concentration 10 uM): 96%
Percent Competition (CSNK1G3; compound concentration 10 uM): 86%
Percent Competition (BTK; compound concentration 10 uM): 91%
Percent Competition ([1]; compound concentration 10 uM): 98%
inhibition at 10 µM (PCTK1; PCTK1, compound concentration 10 uM, read-out: Percent Competition): 100%
SMILES: Fc1ccc(-c2c(-c3ccncc3)[nH]c3nccnc23)cc1 [RO1155697-000-005]

inhibition at 10 µM (RAF1; RAF1, 10 µM, read-out: % Competition): 81%
inhibition at 10 µM (BMPR1B; BMPR1B, 10 µM, read-out: % Competition): 81%
inhibition at 10 µM (ROS1; ROS1, 10 µM, read-out: % Competition): 80%
inhibition at 10 µM (EPHB3; EPHB3, 10 µM, read-out: % Competition): 82%
inhibition at 10 µM (PHKG2; PHKG2, 10 µM, read-out: % Competition): 91%
inhibition at 10 µM (MST4; MST4, 10 µM, read-out: % Competition): 97%
inhibition at 10 µM (DYRK1B; DYRK1B, 10 µM, read-out: % Competition): 79%
inhibition at 10 µM (MEK4; MEK4, 10 µM, read-out: % Competition): 87%
% Competition (EGFR(G719S)): 96%
% Competition (CSNK1G3): 86%
% Competition (BTK): 91%
% Competition [1]: 98%
inhibition at 10 µM (PCTK1; PCTK1, 10 µM, read-out: % Competition): 100%
SMILES: Fc1ccc(-c2c(-c3ccncc3)[nH]c3nccnc23)cc1 [Compound 122]

SMILES: CC(O)CNc1cc(-c2[nH]c3cccnc3c2-c2ccc(F)cc2)ccn1 (stereo not drawn) [Compound 140]
inhibition at 10 µM (RAF1; read-out: % Competition): < 50%
inhibition at 10 µM (BMPR1B; read-out: % Competition): < 50%
inhibition at 10 µM (ROS1; read-out: % Competition): < 50%
inhibition at 10 µM (EPHB3; read-out: % Competition): < 50%
inhibition at 10 µM (PHKG2; read-out: % Competition): < 50%
inhibition at 10 µM (MST4; read-out: % Competition): < 50%
inhibition at 10 µM (DYRK1B; read-out: % Competition): < 50%
inhibition at 10 µM (MEK4; read-out: % Competition): < 50%
% Competition (EGFR(G719S)): 70%
% Competition (CSNK1G3): 91%
% Competition (BTK): <50%
% Competition [1]: 90%
inhibition at 10 µM (PCTK1; read-out: % Competition): < 50%
